From patent US8754242B2, “Herbicides” (Syngenta Crop Protection LLC, priority 2007, dated 2014)

What was measured:
Type in all cases: in vivo
[1] = tested on: Alopecurus myosuroides (ALOMY); assay: Test Example 1 post-emergence herbicidal activity; conditions: rate 125 g/ha, evaluated 15 days later; for pest or weed control at 125 g/ha: 360 h, read-out: Post-emergence activity ALOMY (100=total damage to plant; 0=no damage to plant)
Procedure, shortened: (§1)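 Greenhouse pot test; spray application pre-emergence (1 d after sowing) or post-emergence (10 d growth). Rating 0–100% damage; pre read at 20 d, post at 15 d.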

[2] = tested on: Digitaria sanguinalis (DIGSA); assay: Test Example 1 post-emergence herbicidal activity; conditions: rate 125 g/ha, evaluated 15 days later; for pest or weed control at 125 g/ha: 360 h, read-out: Post-emergence activity DIGSA (100=total damage to plant; 0=no damage to plant)
Procedure, shortened: as §1

[3] = tested on: Lolium perenne (LOLPE); assay: Test Example 1 post-emergence herbicidal activity; conditions: rate 125 g/ha, evaluated 15 days later; for pest or weed control at 125 g/ha: 360 h, read-out: Post-emergence activity LOLPE (100=total damage to plant; 0=no damage to plant)
Procedure, shortened: as §1

[4] = tested on: Avena fatua (AVEFA); assay: Test Example 1 post-emergence herbicidal activity; conditions: rate 125 g/ha, evaluated 15 days later; for pest or weed control at 125 g/ha: 360 h, read-out: Post-emergence activity AVEFA (100=total damage to plant; 0=no damage to plant)
Procedure, shortened: as §1

[5] = tested on: Setaria faberi (SETFA); assay: Test Example 1 post-emergence herbicidal activity; conditions: rate 125 g/ha, evaluated 15 days later; for pest or weed control at 125 g/ha: 360 h, read-out: Post-emergence activity SETFA (100=total damage to plant; 0=no damage to plant)
Procedure, shortened: as §1

[6] = tested on: Echinochloa crus-galli (ECHCG); assay: Test Example 1 post-emergence herbicidal activity; conditions: rate 125 g/ha, evaluated 15 days later; for pest or weed control at 125 g/ha: 360 h, read-out: Post-emergence activity ECHCG (100=total damage to plant; 0=no damage to plant)
Procedure, shortened: as §1

[7] = tested on: winter barley 'Antoniya'; assay: Test Example 2 post-emergence crop injury, alone and with cloquintocet-mexyl; conditions: Adigor 0.5%, 2-3 leaf seedlings, assessed 14-21 days after application
Source text: (§2) Test compounds were applied post-emergence at 60 g ai/ha, alone and in combination with cloquintocet-mexyl at 60 g ai/ha; the adjuvant Adigor (0.5%) was included for every treatment. The application volume was […]. Target plants were 2-3 leaf seedlings of winter wheat ‘Hereward’ and winter barley ‘Antoniya’ grown in a greenhouse under ambient conditions. Assessments were made at 14-21 days after application.

[8] = tested on: winter wheat 'Hereward'; assay: as above; conditions: Adigor 0.5%, 2-3 leaf seedlings, assessed 14-21 days after application
Source text: as §2

[9] = tested on: wheat; assay: Test Example 3 crop injury of T1 alone and with safeners; conditions: safener (if any) at 1:1, 2-3 leaf stage, assessed 14-21 days after application
Source text: (§3) The test compound T1 was applied at 100 and 200 g ai/ha, alone and in combination with a range of safeners as 1:1 mixtures (for example at 100 g+100 g; 200 g+200 g) to the test plants—wheat and maize—at the 2-3 leaf stage. A 4-way safener mixture (cloquintocet-mexyl, benoxacor, fluxofenim and compound A*) was also applied with the test compound so that each safener was used a 1:1 ratio (for example at 100+100+100+100+100 g ai/ha). Assessments were made at 14-21 days after application.

[10] = tested on: maize; assay: as above; conditions: safener (if any) at 1:1, 2-3 leaf stage, assessed 14-21 days after application
Source text: as §3

[11] = tested on: Alopecurus myosuroides (ALOMY); assay: Test Example 1 pre-emergence herbicidal activity; conditions: rate 250 g/ha, evaluated 20 days later; for pest or weed control at 250 g/ha: Alopecurus myosuroides, 480 h, read-out: Pre-emergence activity ALOMY (100=total damage to plant; 0=no damage to plant)
Procedure, shortened: as §1

[12] = tested on: Digitaria sanguinalis (DIGSA); assay: Test Example 1 pre-emergence herbicidal activity; conditions: rate 250 g/ha, evaluated 20 days later; for pest or weed control at 250 g/ha: Digitaria sanguinalis, 480 h, read-out: Pre-emergence activity DIGSA (100=total damage to plant; 0=no damage to plant)
Procedure, shortened: as §1

[13] = tested on: Lolium perenne (LOLPE); assay: Test Example 1 pre-emergence herbicidal activity; conditions: rate 250 g/ha, evaluated 20 days later; for pest or weed control at 250 g/ha: Lolium perenne, 480 h, read-out: Pre-emergence activity LOLPE (100=total damage to plant; 0=no damage to plant)
Procedure, shortened: as §1

[14] = tested on: Avena fatua (AVEFA); assay: Test Example 1 pre-emergence herbicidal activity; conditions: rate 250 g/ha, evaluated 20 days later; for pest or weed control at 250 g/ha: Avena fatua, 480 h, read-out: Pre-emergence activity AVEFA (100=total damage to plant; 0=no damage to plant)
Procedure, shortened: as §1

[15] = tested on: Setaria faberi (SETFA); assay: Test Example 1 pre-emergence herbicidal activity; conditions: rate 250 g/ha, evaluated 20 days later; for pest or weed control at 250 g/ha: Setaria faberi, 480 h, read-out: Pre-emergence activity SETFA (100=total damage to plant; 0=no damage to plant)
Procedure, shortened: as §1

[16] = tested on: Echinochloa crus-galli (ECHCG); assay: Test Example 1 pre-emergence herbicidal activity; conditions: rate 250 g/ha, evaluated 20 days later; for pest or weed control at 250 g/ha: Echinochloa crus-galli, 480 h, read-out: Pre-emergence activity ECHCG (100=total damage to plant; 0=no damage to plant)
Procedure, shortened: as §1

[17] = compound 60 g/ha in combination with cloquintocet-mexyl 60 g/ha
[18] = compound 60 g/ha, cloquintocet-mexyl 0 g/ha

Compound	pest or weed control at 125 g/ha [1] [%]	pest or weed control at 125 g/ha [2] [%]	pest or weed control at 125 g/ha [3] [%]	pest or weed control at 125 g/ha [4] [%]	pest or weed control at 125 g/ha [5] [%]	pest or weed control at 125 g/ha [6] [%]	pest or weed control at 250 g/ha [11] [%]	pest or weed control at 250 g/ha [12] [%]	pest or weed control at 250 g/ha [13] [%]	pest or weed control at 250 g/ha [14] [%]	pest or weed control at 250 g/ha [15] [%]	pest or weed control at 250 g/ha [16] [%]	also measured
CCc1cc(C)cc(CC)c1C1=C(O)[C@H]2[C@@H](C1=O)[C@@H]1CC[C@H]2O1 [Example T1]													Post-emergence activity ALOMY (100=total damage to plant; 0=no damage to plant) [1]: 90; Post-emergence activity DIGSA (100=total damage to plant; 0=no damage to plant) [2]: 100; Post-emergence activity LOLPE (100=total damage to plant; 0=no damage to plant) [3]: 80; Post-emergence activity AVEFA (100=total damage to plant; 0=no damage to plant) [4]: 90; Post-emergence activity SETFA (100=total damage to plant; 0=no damage to plant) [5]: 100; Post-emergence activity ECHCG (100=total damage to plant; 0=no damage to plant) [6]: 100; Crop Injury (%) Barley [7, 17]: 73%; Crop Injury (%) Barley [7, 18]: 99%; Crop Injury (%) Wheat [8, 17]: 18%; Crop Injury (%) Wheat [8, 18]: 85%; Wheat Injury (%) 100 g/ha ([9]; T1 at 100 g ai/ha): 83%; Wheat Injury (%) 200 g/ha ([9]; T1 at 200 g ai/ha): 92%; Maize Injury (%) 100 g/ha ([10]; T1 at 100 g ai/ha): 90%; Maize Injury (%) 200 g/ha ([10]; T1 at 200 g ai/ha): 100%; Pre-emergence activity ALOMY (100=total damage to plant; 0=no damage to plant) [11]: 100; Pre-emergence activity DIGSA (100=total damage to plant; 0=no damage to plant) [12]: 100; Pre-emergence activity LOLPE (100=total damage to plant; 0=no damage to plant) [13]: 100; Pre-emergence activity AVEFA (100=total damage to plant; 0=no damage to plant) [14]: 100; Pre-emergence activity SETFA (100=total damage to plant; 0=no damage to plant) [15]: 100; Pre-emergence activity ECHCG (100=total damage to plant; 0=no damage to plant) [16]: 100
Cc1cc(C)c(C2=C(O)[C@H]3[C@@H](C2=O)[C@@H]2CC[C@H]3O2)c(C)c1 [Example T3]	60	100	60	30	90	100	90	80	100	80	70	100	Crop Injury (%) Barley [7, 17]: 5%; Crop Injury (%) Barley [7, 18]: 5%; Crop Injury (%) Wheat [8, 17]: 0%; Crop Injury (%) Wheat [8, 18]: 28%
Cc1cc(C)c(C2=C(O)[C@@H]3[C@@H]4O[C@@H](C[C@H]4c4ccc(C(F)(F)F)cc4)[C@@H]3C2=O)c(C)c1 [Example T92]	100	100	50	100	100	100	20	70	30	60	70	90	
CCc1cc(C)cc(CC)c1C1=C(O)[C@H]2[C@@H](C1=O)[C@@H]1C=C(C#C[Si](C)(C)C)[C@H]2O1 (racemic) [Example T11]	40	80	30	20	70	70	30	0	60	40	20	30	
CSC1=C[C@@H]2O[C@@]1(C)[C@@H]1C(O)=C(c3c(C)cc(C)cc3C)C(=O)[C@H]21 (racemic) [Example T64]	10	60	0	0	30	50	0	10	10	0	20	50	
CCc1cc(C)cc(CC)c1C1=C(O)[C@@H]2[C@@H]3O[C@@H](C[C@H]3c3ccc([N+](=O)[O-])cc3)[C@@H]2C1=O [Example T158]	90	100	80	90	100	100	60	70	70	50	70	50	
CCc1cc(C)cc(CC)c1C1=C(O)[C@@H]2[C@@H]3O[C@@H](C[C@H]3c3ccc(F)cc3)[C@@H]2C1=O [Example T185]	90	100	80	80	100	100	80	80	100	80	80	80	
